Results: ChEMBL document CHEMBL5370566, “Flindissone, a Limonoid Isolated from Trichilia prieuriana, Is an LXR Agonist” (J Nat Prod, 2023)
Each block holds one compound with its values, some of them ahead of it. The source made the active and inactive calls. The calls are words filed in the database; no cut-off is given here.

Columns and labels:
[1] = biological target: T1, Liver X receptor (Homo sapiens, UniProt Q13133+P55055); experiment: Agonist activity at LXR in human HepG2 cells assessed as increase in cellular lipid content at 1 uM measured after 72 hrs by Oil Red O staining based assay; type: toxicity, cell-based; conditions: hepg2, 72 h
T1 sequence (Q13133 whole entry): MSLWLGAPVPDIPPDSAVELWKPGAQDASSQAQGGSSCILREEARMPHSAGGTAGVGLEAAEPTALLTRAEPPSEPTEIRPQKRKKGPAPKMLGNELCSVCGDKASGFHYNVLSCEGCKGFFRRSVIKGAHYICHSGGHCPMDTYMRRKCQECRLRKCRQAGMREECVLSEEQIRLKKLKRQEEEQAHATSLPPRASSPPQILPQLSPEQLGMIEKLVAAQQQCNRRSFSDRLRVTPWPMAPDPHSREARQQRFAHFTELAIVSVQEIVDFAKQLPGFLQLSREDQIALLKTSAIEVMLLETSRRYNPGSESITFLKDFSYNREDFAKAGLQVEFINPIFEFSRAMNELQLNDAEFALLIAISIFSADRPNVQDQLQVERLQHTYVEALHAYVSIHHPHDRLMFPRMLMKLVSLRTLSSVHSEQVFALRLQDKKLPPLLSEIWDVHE
T1 sequence (P55055 whole entry): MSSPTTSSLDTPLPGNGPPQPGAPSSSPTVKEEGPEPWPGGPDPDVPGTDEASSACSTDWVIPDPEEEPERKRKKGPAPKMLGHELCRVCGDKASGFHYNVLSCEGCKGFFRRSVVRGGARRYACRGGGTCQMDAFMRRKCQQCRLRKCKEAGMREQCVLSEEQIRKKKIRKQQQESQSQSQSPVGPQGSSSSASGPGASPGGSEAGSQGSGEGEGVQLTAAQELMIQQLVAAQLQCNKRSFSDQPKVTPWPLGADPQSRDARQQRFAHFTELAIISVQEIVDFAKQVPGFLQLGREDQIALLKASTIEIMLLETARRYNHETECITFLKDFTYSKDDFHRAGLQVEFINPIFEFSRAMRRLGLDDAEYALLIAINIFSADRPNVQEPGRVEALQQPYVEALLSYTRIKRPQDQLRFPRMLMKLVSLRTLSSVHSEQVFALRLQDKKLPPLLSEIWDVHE

[2] = test system: HepG2; experiment: Effect on LDLR mRNA expression level in human HepG2 cells at 1 uM by RT-qPCR analysis; type: functional, cell-based
[3] = biological target: T1, Liver X receptor; experiment: Agonist activity at LXR in human HepG2 cells assessed as reduction in HMGCR mRNA expression upto 10 uM measured after 72 hrs by RT-qPCR analysis; type: toxicity, cell-based; conditions: hepg2, 72 h
[4] = biological target: T1, Liver X receptor; experiment: Agonist activity at LXR in human HepG2 cells assessed as reduction in SREBP1c proteolytic processing upto 10 uM measured after 72 hrs by Western blot analysis; type: toxicity, cell-based; conditions: hepg2, 72 h
[5] = biological target: T2, Oxysterols receptor LXR-beta (Homo sapiens, UniProt P55055); experiment: Agonist activity at full length human LXRbeta transfected in HEK293T cells co-expressing ABCA1 assessed as increase in luciferase activity measured after 18 hrs by luciferase reporter gene assay; type: cell-based
T2 sequence (P55055 whole entry): T1 sequence (P55055 whole entry)

[6] = biological target: T3, Oxysterols receptor LXR-alpha (Homo sapiens, UniProt Q13133); experiment: Agonist activity at full length human LXRalpha transfected in HEK293T cells co-expressing ABCA1 assessed as increase in luciferase activity measured after 18 hrs by reporter gene assay; type: cell-based
T3 sequence (Q13133 whole entry): T1 sequence (Q13133 whole entry)

[7] = test system: HepG2; experiment: Effect on LDLR mRNA expression level in human HepG2 cells at 5 uM by RT-qPCR analysis; type: functional, cell-based
[8] = biological target: T1, Liver X receptor; experiment: Agonist activity at LXR in human HepG2 cells assessed as increase in SREBF1 protein expression level at 1 to 10 uM measured after 72 hrs by Western blot analysis; type: toxicity, cell-based; conditions: hepg2, 72 h, dose 1-10 µM
[9] = biological target: T1, Liver X receptor; experiment: Agonist activity at LXR in human HepG2 cells assessed as reduction in HMGCR mRNA expression measured after 72 hrs by RT-qPCR analysis; type: toxicity, cell-based; conditions: hepg2, 72 h, dose 1-10 µM
[10] = organism: Homo sapiens; experiment: Activation at RXR (unknown origin)
[11] = test system: HepG2; experiment: Effect on LDLR mRNA expression level in human HepG2 cells at 1 to 10 uM by RT-qPCR analysis; type: functional, cell-based; conditions: dose 1-10 µM
[12] = biological target: T4, Liver X receptor (Homo sapiens) (UniProt Q13133+P55055); experiment: Agonist activity at LXR in human THP-1 cells assessed as increase of ABCA1 mRNA expression level at 1 to 10 uM by RT-qPCR analysis; type: cell-based; conditions: filed as agonist, dose 1-10 µM
[13] = biological target: T5, Nuclear receptor ROR-gamma (Homo sapiens) (UniProt P51449); experiment: Activation at RORgamma (unknown origin)
T5 sequence (whole entry): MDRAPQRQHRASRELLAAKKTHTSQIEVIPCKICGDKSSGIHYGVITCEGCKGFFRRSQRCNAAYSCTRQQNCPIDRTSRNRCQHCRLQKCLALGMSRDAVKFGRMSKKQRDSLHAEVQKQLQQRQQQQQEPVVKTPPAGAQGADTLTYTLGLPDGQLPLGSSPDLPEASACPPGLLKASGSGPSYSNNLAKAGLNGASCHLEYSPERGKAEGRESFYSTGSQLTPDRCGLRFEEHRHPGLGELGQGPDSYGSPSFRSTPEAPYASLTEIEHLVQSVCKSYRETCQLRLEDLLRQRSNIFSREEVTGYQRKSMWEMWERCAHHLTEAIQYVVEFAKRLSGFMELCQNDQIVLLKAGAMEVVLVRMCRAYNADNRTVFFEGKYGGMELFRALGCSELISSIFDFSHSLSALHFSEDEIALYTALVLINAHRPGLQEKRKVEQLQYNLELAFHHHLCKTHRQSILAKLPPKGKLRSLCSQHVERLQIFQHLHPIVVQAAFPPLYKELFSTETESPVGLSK

[14] = biological target: T4, Liver X receptor (Homo sapiens); experiment: Agonist activity at LXR in human THP-1 cells assessed as increase of ABCA1 protein expression level at 1 to 10 uM by Western blot analysis; type: cell-based; conditions: filed as agonist, dose 1-10 µM
[15] = biological target: T4, Liver X receptor (Homo sapiens); experiment: Agonist activity at LXR in cholesterol treated human THP-1 cells assessed as stimulation of plasma mediated cholesterol efflux at 5 uM pre incubated for 24 hrs followed by plasma addition measured after 6 hrs by liquid scintillation counting analysis; type: cell-based; conditions: filed as agonist
[16] = biological target: T4, Liver X receptor (Homo sapiens); experiment: Agonist activity at LXR in human THP-1 cells assessed as increase of ABCG1 mRNA expression level at 1 to 10 uM by RT-qPCR analysis; type: cell-based; conditions: filed as agonist, dose 1-10 µM
[17] = biological target: T4, Liver X receptor (Homo sapiens); experiment: Agonist activity at LXR in human HepG2 cells assessed as increase of IDOL mRNA expression level at 10 uM by RT-qPCR analysis; type: cell-based; conditions: filed as agonist
[18] = biological target: T6, Bile acid receptor (Homo sapiens) (UniProt Q96RI1); experiment: Activation at FXR (unknown origin)
T6 sequence (whole entry): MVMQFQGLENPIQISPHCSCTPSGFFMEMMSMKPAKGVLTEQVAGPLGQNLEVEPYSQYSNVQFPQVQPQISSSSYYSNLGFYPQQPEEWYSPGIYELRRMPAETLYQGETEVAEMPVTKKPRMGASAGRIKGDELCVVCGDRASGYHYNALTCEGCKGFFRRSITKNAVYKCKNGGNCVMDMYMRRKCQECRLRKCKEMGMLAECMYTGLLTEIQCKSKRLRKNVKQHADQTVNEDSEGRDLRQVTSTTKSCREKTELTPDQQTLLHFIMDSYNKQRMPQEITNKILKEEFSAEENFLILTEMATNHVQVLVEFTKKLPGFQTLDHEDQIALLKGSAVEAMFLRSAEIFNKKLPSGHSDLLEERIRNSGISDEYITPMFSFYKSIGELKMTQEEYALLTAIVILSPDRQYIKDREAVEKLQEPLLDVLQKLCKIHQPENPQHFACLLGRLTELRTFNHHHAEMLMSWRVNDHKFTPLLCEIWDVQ

[19] = biological target: T1, Liver X receptor; experiment: Agonist activity at LXR in human HepG2 cells assessed as increase in SREBF1 mRNA expression level at 1 to 10 uM measured after 72 hrs by RT-qPCR analysis; type: toxicity, cell-based; conditions: hepg2, 72 h, dose 1-10 µM
[20] = biological target: T7, Oxysterols receptor LXR-alpha (Homo sapiens) (UniProt Q13133); experiment: Agonist activity at human LXRalpha-LBD transfected in HEK293T cells co-expressing Gal4-DBD assessed as increase in luciferase activity measured after 18 hrs by reporter gene assay; type: cell-based; conditions: filed as agonist, dose 1-10 µM
T7 sequence (whole entry): T1 sequence (Q13133 whole entry)

[21] = biological target: T8, Oxysterols receptor LXR-beta (Homo sapiens) (UniProt P55055); experiment: Agonist activity at human LXRbeta-LBD transfected in HEK293T cells co-expressing Gal4-DBD assessed as increase in luciferase activity measured after 18 hrs by reporter gene assay; type: cell-based; conditions: filed as agonist, dose 1-10 µM
T8 sequence (whole entry): T1 sequence (P55055 whole entry)

[22] = test system: HEK-293T; experiment: Cytotoxicity against HEK293T cells transfected with LXRalpha assessed as cell viability at >10 uM measured after 18 hrs by luciferase reporter gene assay; type: toxicity, cell-based; conditions: human
[23] = biological target: T4, Liver X receptor (Homo sapiens); experiment: Agonist activity at LXR in cholesterol treated human THP-1 cells assessed as stimulation of plasma mediated cholesterol efflux pre incubated for 24 hrs followed by plasma addition measured after 6 hrs by liquid scintillation counting analysis; type: cell-based; conditions: filed as agonist, dose 1-10 µM, time 30.0 hrs
[24] = biological target: T1, Liver X receptor; experiment: Agonist activity at LXR in human HepG2 cells assessed as reduction in SREBP1c proteolytic processing measured after 72 hrs by Western blot analysis; type: toxicity, cell-based; conditions: hepg2, 72 h, dose 1-10 µM

SMILES: O=C(O)Cc1cccc(OCCCN(Cc2cccc(C(F)(F)F)c2Cl)CC(c2ccccc2)c2ccccc2)c1
Activity [1]: Toxic
Activity [2]: inactive

SMILES: CC(C)CC[C@@H](O)[C@@H](C)[C@H]1CC[C@H]2[C@@H]3CC=C4C[C@@H](O)CC[C@]4(C)[C@H]3CC[C@]12C [22(R)-HYDROXYCHOLESTEROL]
Activity [3]: Active
Activity [4]: Not Active
EC50 [5]: 1500 nM
EC50 [6]: 1200 nM
Activity [7]: inactive

Activity [10]: inactive
Activity [12]: Active
Activity [13]: inactive
Activity [14]: Active
Activity [15]: Active
Activity [16]: Active
Activity [17]: Active
Activity [18]: inactive
Activity [20]: Dose-Dependent Effect
EC50 [5]: 5300 nM
Activity [21]: Dose-Dependent Effect
EC50 [6]: 1600 nM
Activity [23]: Active
SMILES: CC(C)=C[C@@H]1C[C@@H]([C@@H]2CC[C@]3(C)C4=CC[C@H]5C(C)(C)C(=O)CC[C@]5(C)[C@H]4CC[C@@]23C)[C@H](O)O1
Activity [8]: Not Active
Activity [9]: Dose-Dependent Effect
Activity [11]: inactive
Activity [19]: Not Active
Activity [22]: Toxic
Activity [24]: Dose-Dependent Effect
